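Exposure lasted 48 hours, with cells grown in 96-well plates and compounds tested at five concentrations. At the GI50, growth is halved. Definition used: TGI = concentration required for complete inhibition of growth.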
Experiments:
Experiment in all cases: NCI tumour cell line growth inhibition, 48 h
NCI-H522 lung = system: NCI-H522 lung
HCT-15 colon = system: HCT-15 colon
CCRF-CEM leukemia = system: CCRF-CEM leukemia
SK-MEL-2 melanoma = system: SK-MEL-2 melanoma
UACC-257 melanoma = system: UACC-257 melanoma
TK-10 renal = system: TK-10 renal
UACC-62 melanoma = system: UACC-62 melanoma
SF-295 CNS = system: SF-295 CNS
HOP-62 NSCLC = system: HOP-62 NSCLC
NCI-H460 lung = system: NCI-H460 lung

| SMILES | TGI (NCI-H522 lung) | TGI (HCT-15 colon) | TGI (CCRF-CEM leukemia) | TGI (SK-MEL-2 melanoma) | TGI (UACC-257 melanoma) | TGI (TK-10 renal) | TGI (UACC-62 melanoma) | TGI (SF-295 CNS) | TGI (HOP-62 NSCLC) | TGI (NCI-H460 lung) | GI50 (NCI-H522 lung) | GI50 (HCT-15 colon) | GI50 (CCRF-CEM leukemia) | GI50 (HOP-62 NSCLC) | GI50 (SK-MEL-2 melanoma) | GI50 (UACC-257 melanoma) | GI50 (TK-10 renal) | GI50 (NCI-H460 lung) | GI50 (UACC-62 melanoma) | GI50 (SF-295 CNS) |
| --- | --- | --- | --- | --- | --- | --- | --- | --- | --- | --- | --- | --- | --- | --- | --- | --- | --- | --- | --- | --- |
| Cn1ncc2c(=O)[nH]c(-c3ccccc3)nc21 | > 100 µM | > 100 µM | > 100 µM | > 100 µM | > 100 µM | > 100 µM | > 100 µM | > 100 µM | – | – | – | – | – | – | – | – | – | – | – | – |
| CCc1cc(C)cc2[n+]1CC=C2C | > 100 µM | – | – | > 100 µM | > 100 µM | > 100 µM | – | > 100 µM | > 100 µM | > 100 µM | – | – | – | – | – | – | – | – | – | – |
| N=C(N)SC(c1ccccc1)c1ccccc1 | 34.8 µM | 40.7 µM | 32.1 µM | 32 µM | 28.4 µM | 28.2 µM | 30.8 µM | 34.7 µM | 41.1 µM | 37.1 µM | – | – | – | – | – | – | – | – | – | – |
| O=C(Nc1ccc(-n2ccc3c(NC(=O)c4ccccc4)ncnc32)cc1)Nc1ccc(Cl)c(C(F)(F)F)c1 | 2.89 µM | 2.19 µM | 3.73 µM | 5.66 µM | 6.39 µM | 4.95 µM | 4.59 µM | 3.38 µM | 4.45 µM | 3.06 µM | 1.07 µM | 0.765 µM | 0.806 µM | 2.16 µM | 2.44 µM | 2.76 µM | 1.8 µM | 1.35 µM | 1.9 µM | 1.41 µM |
| O=C1CC(c2ccccc2)NCCCCN2CC(CN1)C(C(O)c1ccccc1)C2=O (stereo not drawn) | > 100 µM | > 100 µM | > 100 µM | > 100 µM | > 100 µM | > 100 µM | > 100 µM | > 100 µM | > 100 µM | > 100 µM | – | – | – | – | – | – | – | – | – | – |
| NS(=O)(=O)c1ccc(C(=O)O)cc1 | > 100 µM | > 100 µM | > 100 µM | > 100 µM | – | > 100 µM | > 100 µM | > 100 µM | > 100 µM | – | – | – | – | – | – | – | – | – | – | – |
| COc1ccc2c(c1)C(=O)c1c-2n(CCCCl)c(=O)c2cc([N+](=O)[O-])ccc12 | 0.963 µM | > 100 µM | 0.212 µM | > 95.6 µM | 98.5 µM | – | 1.81 µM | 0.21 µM | – | – | < 0.0265 µM | 0.0575 µM | < 0.01 µM | – | 3.56 µM | 1.59 µM | 0.639 µM | < 0.0178 µM | – | < 0.01 µM |
| COc1cc2c(cc1OCCCOc1cc3c(cc1OC)C(=O)N1CC(F)(F)C[C@H]1C=N3)N=C[C@@H]1CC(F)(F)CN1C2=O | 1.03 µM | 50.6 µM | 1.06 µM | 12.8 µM | 5.46 µM | 12.5 µM | 1.82 µM | 0.539 µM | 2.59 µM | 2.45 µM | 0.228 µM | 10.4 µM | – | 0.206 µM | 2.32 µM | 2 µM | 3.56 µM | 0.0551 µM | 0.365 µM | 0.0635 µM |
| Cc1cccc(NC(N)=S)c1 | > 100 µM | > 100 µM | > 100 µM | > 100 µM | > 100 µM | > 100 µM | > 100 µM | – | > 100 µM | > 100 µM | – | – | – | – | – | – | – | – | – | – |
| CC(C)(c1ccccc1)c1ccc(Oc2ccc3c(c2)-c2nc-3nc3[nH]c(nc4nc(nc5[nH]c(n2)c2ccc(Oc6ccc(C(C)(C)c7ccccc7)cc6)cc52)-c2cc(Oc5ccc(C(C)(C)c6ccccc6)cc5)ccc2-4)c2ccc(Oc4ccc(C(C)(C)c5ccccc5)cc4)cc32)cc1 | > 100 µM | – | > 100 µM | > 100 µM | > 100 µM | > 100 µM | > 100 µM | – | > 100 µM | > 100 µM | – | – | – | – | – | – | – | – | – | – |
| Nc1ccc([As](=O)(O)O)cc1 | > 100 µM | > 100 µM | > 100 µM | > 100 µM | > 100 µM | > 100 µM | > 100 µM | > 100 µM | > 100 µM | > 100 µM | – | – | – | – | – | – | – | – | – | – |
| Cc1cc(N2CCCCC2)nc(NCc2cc(Nc3ccnc4cc(Cl)ccc34)ccc2F)n1 | 3.37 µM | 3.8 µM | 4.33 µM | 3.59 µM | 2.85 µM | 3.67 µM | 3.44 µM | 2.7 µM | 2.89 µM | 4.17 µM | 1.71 µM | 1.84 µM | 0.921 µM | 1.4 µM | 1.89 µM | 1.32 µM | 1.96 µM | 1.99 µM | 1.62 µM | 1.32 µM |
| Cc1nc2ccccc2c(=O)n1Nc1ccc(C(=O)O)cc1 | > 100 µM | > 100 µM | > 100 µM | > 100 µM | > 100 µM | – | > 100 µM | > 100 µM | > 100 µM | > 100 µM | – | – | – | – | – | – | – | – | – | – |
| CN(C)C=O.CN(C)C=O.CN1C(C(=O)Nc2ccccn2)=C([O-])c2ccccc2S1(=O)=O.CN1C(C(=O)Nc2ccccn2)=C([O-])c2ccccc2S1(=O)=O.[Cu+2] | > 100 µM | > 100 µM | – | > 100 µM | > 100 µM | > 100 µM | 41.2 µM | > 100 µM | 78.8 µM | > 100 µM | – | – | – | – | – | – | – | 32.5 µM | – | – |
